Source: ChEMBL document CHEMBL5465560, “Selectivity Literature for EUbOPEN Chemogenomic Library” (2024)

Columns and labels:
[1] = target: Ribosomal protein S6 kinase alpha-6 (Homo sapiens, UniProt Q9UK32); conditions: at 10 µM
[2] = target: MAP kinase-activated protein kinase 3 (Homo sapiens) (UniProt Q16644); assay: Selectivity interaction (Kinase panel (KiNativ target engagement assay in Jurkat cells)) EUB0001635a MAPKAPK3; assay type: cell-based; conditions: Selectivity number of off-targets 0.0, Selectivity number of targets 233.0, Source Knowledge https://www.sciencedirect.com/science/article/pii/S2451945619300674?via%3Dihub, at 1 µM
MAP kinase-activated protein kinase 3 (Homo sapiens), sequence (Q16644 whole entry, looked up): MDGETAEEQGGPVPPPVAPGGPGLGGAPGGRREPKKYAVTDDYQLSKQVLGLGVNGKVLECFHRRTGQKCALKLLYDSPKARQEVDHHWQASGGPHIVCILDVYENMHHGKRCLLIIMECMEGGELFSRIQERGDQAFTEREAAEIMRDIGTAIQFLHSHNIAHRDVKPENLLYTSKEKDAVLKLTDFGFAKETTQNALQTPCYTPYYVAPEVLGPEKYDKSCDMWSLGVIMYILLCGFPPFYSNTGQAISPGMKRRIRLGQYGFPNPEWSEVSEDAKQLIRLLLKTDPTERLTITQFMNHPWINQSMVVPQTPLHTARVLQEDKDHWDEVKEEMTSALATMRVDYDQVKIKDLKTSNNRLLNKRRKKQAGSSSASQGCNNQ

[3] = target: Tyrosine-protein kinase Lyn (Homo sapiens, UniProt P07948); assay: Selectivity interaction (Kinase panel (Z-LYTE Assay)) EUB0001632a LYN; conditions: at 10 µM
Tyrosine-protein kinase Lyn, sequence (P07948 2-512 limits assumed): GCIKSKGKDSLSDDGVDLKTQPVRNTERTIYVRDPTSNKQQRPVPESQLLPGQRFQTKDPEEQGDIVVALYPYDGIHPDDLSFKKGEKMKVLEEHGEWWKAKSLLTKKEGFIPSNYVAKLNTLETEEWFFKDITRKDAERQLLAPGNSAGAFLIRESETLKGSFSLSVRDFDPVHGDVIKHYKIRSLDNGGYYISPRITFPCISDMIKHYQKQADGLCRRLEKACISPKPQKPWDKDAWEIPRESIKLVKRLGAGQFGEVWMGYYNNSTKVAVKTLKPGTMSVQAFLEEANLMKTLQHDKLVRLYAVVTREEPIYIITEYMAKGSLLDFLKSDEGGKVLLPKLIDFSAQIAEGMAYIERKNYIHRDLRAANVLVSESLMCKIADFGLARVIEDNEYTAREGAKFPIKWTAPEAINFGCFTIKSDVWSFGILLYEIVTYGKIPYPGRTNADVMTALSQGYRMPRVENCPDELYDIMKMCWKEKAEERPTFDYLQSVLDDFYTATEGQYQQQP

[4] = target: T1, Histone-lysine N-methyltransferase NSD3 (Homo sapiens) (UniProt Q9BZ95); assay: Selectivity interaction (Transferase panel (protein, RNA, and DNA methyltransferases. and EP300 (acetyltransferase))) EUB0000270b NSD3
T1 sequence (whole entry): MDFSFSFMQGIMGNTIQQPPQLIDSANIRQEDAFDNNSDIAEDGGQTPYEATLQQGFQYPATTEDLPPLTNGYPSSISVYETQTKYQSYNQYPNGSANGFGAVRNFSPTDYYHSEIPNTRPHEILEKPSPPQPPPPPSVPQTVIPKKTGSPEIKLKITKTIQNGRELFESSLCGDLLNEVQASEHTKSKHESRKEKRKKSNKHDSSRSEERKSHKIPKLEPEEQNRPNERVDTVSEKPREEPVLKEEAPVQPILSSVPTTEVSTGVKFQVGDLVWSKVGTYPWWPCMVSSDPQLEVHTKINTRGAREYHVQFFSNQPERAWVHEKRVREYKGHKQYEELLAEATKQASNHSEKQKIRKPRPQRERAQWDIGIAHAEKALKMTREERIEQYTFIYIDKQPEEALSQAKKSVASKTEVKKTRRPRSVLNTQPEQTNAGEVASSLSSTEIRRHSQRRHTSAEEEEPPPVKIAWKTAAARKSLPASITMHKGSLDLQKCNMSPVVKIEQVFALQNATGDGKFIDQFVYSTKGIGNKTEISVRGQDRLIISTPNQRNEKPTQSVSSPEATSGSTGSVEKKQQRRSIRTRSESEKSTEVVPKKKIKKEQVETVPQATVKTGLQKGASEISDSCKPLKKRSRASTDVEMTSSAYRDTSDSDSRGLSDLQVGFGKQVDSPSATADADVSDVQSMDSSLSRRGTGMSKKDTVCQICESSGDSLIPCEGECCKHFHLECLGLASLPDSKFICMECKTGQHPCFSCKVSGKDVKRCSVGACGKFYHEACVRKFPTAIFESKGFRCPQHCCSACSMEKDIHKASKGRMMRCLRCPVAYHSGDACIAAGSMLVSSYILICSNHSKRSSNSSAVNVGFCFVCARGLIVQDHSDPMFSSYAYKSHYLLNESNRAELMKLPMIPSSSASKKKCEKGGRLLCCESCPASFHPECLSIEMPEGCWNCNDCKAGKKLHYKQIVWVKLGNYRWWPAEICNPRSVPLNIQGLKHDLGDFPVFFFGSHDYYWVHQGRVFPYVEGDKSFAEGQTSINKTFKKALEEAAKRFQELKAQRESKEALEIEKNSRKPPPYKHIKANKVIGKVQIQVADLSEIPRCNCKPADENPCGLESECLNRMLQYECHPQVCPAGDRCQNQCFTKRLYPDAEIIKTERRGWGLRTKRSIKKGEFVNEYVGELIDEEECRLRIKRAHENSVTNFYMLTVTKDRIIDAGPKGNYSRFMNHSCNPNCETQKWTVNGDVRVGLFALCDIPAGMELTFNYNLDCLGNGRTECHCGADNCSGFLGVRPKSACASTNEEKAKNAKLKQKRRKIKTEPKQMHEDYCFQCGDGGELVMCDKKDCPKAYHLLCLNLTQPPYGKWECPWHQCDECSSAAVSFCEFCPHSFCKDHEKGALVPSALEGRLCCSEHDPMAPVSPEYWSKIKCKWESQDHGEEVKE

[5] = target: Histone-lysine N-methyltransferase SETD2 (Homo sapiens) (UniProt Q9BYW2); assay: Selectivity interaction (Methyltransferase screen (radiometric assays, panel of 8 PRMTs, 21 protein lysine methyltransferases, 3 DNA methyltransferases, and one RNA methyltransferase)) EUB0000271b SETD2
Histone-lysine N-methyltransferase SETD2 (Homo sapiens), sequence (Q9BYW2 whole entry): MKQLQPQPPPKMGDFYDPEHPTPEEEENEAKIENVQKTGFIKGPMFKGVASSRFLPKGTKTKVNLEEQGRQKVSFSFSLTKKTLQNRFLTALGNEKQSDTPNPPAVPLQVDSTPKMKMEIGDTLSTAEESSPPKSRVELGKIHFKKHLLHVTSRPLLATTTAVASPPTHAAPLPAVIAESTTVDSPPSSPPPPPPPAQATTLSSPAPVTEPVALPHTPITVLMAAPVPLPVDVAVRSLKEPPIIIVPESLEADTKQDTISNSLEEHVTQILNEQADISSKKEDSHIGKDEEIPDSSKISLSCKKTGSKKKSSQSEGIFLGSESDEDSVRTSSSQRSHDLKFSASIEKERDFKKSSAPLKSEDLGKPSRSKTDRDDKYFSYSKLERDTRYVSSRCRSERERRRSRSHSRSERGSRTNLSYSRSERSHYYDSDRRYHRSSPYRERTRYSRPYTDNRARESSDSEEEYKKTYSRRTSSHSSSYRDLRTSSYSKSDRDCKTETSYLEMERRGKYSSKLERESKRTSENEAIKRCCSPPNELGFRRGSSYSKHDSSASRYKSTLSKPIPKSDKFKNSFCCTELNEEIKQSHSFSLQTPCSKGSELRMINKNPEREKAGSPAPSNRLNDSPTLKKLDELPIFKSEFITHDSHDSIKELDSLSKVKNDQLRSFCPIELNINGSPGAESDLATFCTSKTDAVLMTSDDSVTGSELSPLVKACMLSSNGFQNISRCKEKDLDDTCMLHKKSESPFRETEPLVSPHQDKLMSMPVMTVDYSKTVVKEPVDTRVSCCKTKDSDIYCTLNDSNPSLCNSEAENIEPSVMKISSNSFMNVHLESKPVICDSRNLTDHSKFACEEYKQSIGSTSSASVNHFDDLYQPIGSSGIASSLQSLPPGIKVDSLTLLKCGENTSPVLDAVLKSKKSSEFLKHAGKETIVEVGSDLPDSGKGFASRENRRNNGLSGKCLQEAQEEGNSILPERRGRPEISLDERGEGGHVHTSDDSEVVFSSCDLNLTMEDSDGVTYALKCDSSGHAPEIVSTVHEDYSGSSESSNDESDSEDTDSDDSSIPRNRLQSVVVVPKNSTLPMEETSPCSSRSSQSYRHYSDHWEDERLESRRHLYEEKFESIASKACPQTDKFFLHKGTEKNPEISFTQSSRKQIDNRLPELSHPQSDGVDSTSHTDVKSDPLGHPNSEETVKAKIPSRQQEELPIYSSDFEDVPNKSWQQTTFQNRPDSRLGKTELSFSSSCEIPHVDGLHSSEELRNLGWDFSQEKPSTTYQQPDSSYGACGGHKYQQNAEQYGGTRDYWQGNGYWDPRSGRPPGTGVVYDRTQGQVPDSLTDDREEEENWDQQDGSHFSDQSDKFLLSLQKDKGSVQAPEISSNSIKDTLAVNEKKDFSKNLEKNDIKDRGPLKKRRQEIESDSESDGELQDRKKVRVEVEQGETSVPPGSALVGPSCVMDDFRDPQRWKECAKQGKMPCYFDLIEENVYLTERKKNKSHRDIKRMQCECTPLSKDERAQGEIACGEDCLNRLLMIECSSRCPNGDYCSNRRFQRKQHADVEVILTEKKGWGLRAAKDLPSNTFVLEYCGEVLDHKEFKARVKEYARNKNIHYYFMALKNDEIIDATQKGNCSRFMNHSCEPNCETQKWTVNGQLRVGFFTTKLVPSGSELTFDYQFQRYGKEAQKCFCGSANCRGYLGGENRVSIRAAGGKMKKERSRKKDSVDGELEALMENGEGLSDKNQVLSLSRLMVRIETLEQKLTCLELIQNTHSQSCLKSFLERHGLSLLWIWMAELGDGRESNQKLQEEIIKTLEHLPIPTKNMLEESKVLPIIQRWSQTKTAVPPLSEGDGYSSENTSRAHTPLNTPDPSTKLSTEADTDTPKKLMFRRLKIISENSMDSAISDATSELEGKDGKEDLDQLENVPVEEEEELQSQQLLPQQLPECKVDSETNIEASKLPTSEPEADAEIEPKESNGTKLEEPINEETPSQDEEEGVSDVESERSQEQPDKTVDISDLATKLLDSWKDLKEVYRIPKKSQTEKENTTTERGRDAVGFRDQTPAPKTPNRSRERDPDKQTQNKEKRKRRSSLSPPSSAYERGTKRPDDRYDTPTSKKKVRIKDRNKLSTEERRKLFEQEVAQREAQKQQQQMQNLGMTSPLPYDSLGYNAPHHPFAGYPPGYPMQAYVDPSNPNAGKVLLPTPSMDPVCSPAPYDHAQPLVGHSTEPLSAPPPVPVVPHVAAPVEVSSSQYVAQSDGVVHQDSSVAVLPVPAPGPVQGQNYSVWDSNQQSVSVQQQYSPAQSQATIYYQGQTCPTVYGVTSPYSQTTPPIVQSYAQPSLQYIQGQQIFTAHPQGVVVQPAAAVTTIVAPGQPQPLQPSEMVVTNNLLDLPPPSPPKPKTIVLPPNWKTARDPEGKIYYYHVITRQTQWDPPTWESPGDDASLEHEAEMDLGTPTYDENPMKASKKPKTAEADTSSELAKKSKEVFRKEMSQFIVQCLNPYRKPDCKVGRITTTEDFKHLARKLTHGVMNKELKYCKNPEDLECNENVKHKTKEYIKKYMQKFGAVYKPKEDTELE

[6] = target: T2, Serine/threonine-protein kinase RIO3 (Homo sapiens) (UniProt O14730); assay: Selectivity interaction (KinomeScan (DiscoverX)) EUB0000618a RIOK3; conditions: at 10 µM
T2 sequence (whole entry): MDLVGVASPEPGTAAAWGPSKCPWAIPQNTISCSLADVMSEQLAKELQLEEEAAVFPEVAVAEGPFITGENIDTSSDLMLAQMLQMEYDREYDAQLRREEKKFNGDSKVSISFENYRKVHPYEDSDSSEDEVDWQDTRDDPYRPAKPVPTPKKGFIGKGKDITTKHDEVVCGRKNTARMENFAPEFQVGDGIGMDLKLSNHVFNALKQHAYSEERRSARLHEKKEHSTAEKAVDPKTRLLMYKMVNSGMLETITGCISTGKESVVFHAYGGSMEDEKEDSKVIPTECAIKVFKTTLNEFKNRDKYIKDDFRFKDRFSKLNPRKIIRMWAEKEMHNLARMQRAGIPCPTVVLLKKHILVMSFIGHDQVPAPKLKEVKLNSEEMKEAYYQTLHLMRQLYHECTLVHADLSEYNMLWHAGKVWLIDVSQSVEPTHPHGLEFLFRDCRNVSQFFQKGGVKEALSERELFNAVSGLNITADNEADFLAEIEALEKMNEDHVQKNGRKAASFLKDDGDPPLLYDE

[7] = target: Protein arginine N-methyltransferase 1 (Homo sapiens, UniProt Q99873); conditions: at 10 µM
Protein arginine N-methyltransferase 1, sequence (Q99873 whole entry, looked up): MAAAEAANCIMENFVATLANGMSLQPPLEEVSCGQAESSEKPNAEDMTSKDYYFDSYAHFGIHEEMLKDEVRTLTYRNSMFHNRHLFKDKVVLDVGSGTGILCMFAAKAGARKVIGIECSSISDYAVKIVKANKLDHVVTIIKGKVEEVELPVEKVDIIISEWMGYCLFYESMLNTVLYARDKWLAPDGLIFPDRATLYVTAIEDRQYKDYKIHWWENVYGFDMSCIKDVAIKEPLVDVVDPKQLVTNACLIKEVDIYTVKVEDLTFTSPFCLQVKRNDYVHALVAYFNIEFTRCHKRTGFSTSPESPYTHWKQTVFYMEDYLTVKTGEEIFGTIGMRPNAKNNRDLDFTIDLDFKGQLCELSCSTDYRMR

Ribosomal protein S6 kinase alpha-6, sequence (Q9UK32 whole entry): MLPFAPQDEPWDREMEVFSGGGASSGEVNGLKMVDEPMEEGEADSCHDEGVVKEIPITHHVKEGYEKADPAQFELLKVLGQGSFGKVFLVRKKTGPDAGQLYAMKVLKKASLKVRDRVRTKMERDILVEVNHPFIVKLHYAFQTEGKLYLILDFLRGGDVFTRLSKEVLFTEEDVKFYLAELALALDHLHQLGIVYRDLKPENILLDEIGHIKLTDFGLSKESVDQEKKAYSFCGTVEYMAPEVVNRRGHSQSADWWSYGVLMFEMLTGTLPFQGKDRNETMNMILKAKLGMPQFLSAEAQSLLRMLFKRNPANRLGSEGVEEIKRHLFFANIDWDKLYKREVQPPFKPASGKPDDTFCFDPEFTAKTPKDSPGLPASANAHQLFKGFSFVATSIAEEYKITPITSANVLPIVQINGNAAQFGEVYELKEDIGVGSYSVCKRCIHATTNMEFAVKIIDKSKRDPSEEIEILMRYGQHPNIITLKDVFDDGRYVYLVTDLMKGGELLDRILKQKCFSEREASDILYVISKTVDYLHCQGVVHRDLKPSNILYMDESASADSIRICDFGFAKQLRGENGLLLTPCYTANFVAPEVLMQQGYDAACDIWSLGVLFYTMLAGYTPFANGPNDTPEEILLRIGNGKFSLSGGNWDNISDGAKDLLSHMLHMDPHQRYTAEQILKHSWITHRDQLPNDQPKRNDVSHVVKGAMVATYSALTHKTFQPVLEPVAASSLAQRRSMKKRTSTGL

Molecule CCN(CC)CCCCNc1ncc2cc(-c3cc(OC)cc(OC)c3)c(NC(=O)NC(C)(C)C)nc2n1 has a % of control [1] of 100%.

C=CC(=O)Nc1ccc(C(=O)Nc2[nH]nc3c2CN(C(=O)N[C@H](CN(C)C)c2ccccc2)C3(C)C)cc1 showed a % of engagement [2] of -9.9%.

Cn1cc(-n2cnc3c(NCc4nc5cc(Cl)c(Cl)cc5[nH]4)nc(N4CCOCC4)nc32)cn1 gave a % of control [3] of 6.83%.

Cc1cc(CN)cc(C)c1-c1ncn(C)c1-c1cncn1C showed a % activity ([4]; at 1 µM) of over 90% and a % activity ([4]; at 10 µM) of over 80%.

For Cc1cc(C)cc([C@@H]2c3cc(C)ccc3NC(=O)CN2C(=O)c2ccc(Br)s2)c1, the % of activity ([5]; at 1 µM) was 104% and the % of activity ([5]; at 10 µM) was 101%.

O[C@H]1CC[C@H](Nc2ncc3nc(Nc4c(F)cc(F)cc4F)n([C@H]4CCOC4)c3n2)CC1 showed a % of control [6] of 100%.

With CNCCN1CCC(c2cc(CN(C)C(=O)c3cccc(Oc4ccccc4)c3)ccn2)CC1 the % activity [7] was over 90%.
